Test system: methacholine-induced bronchoconstriction
Assay: In vivo inhibition of guinea pig broncho-constriction (methacholine-induced)
Conditions: Cavia porcellus, IT (intra-tracheal) route, read-out: calculated effective dose (ED50), bronchoconstriction
Description: The activity of compounds of the invention in dilation of bronchiolar muscles, may be tested in different models. Guinea pig pulmonary-cholinergic in vivo model is generally used to test the materials for the treatments of asthma in human (Fleisch et al., 1985) Compounds of the invention can be tested in this methacholine-induced bronchomuscle constriction model as described below.
Groups of 3 Duncan Hartley derived male or female guinea pigs weighing 250±50 g are anesthetized with pentobarbital sodium (50 mg/kg i.p., plus an additional 15 mg/kg i.p. if required) and succinylcholine chloride (2 mg/animal i.p.) is subsequently administered to prevent spontaneous respiration. Body temperature is maintained at 37° to 38° C.
The trachea is cannulated and the guinea pig is ventilated with a Harvard rodent respirator in a closed system. Tracheal pressure is recorded through a side-arm of the cannula connected to a P23ID Statham transducer. […] Mean arterial pressure (BP) is monitored from a cannulated carotid artery, and heart rate (HR) is obtained from chest electrodes arranged for lead II. […]
Compounds of the invention are also tested via intra-tracheal (IT) route of administration. […] Tracheal pressure (ITP), blood pressure and heart rate are measured immediately as indicated in the material and methods sections. […]

With `CCCC/C(C)=C/C=C\[C@H]1CCC(=O)N1CCc1ccc(C(=O)O)cc1` [Example 3, 4-(2-{(2R)-2-[(1Z,3E)-4-methylocta-1,3-dienyl]-5-oxopyrrolidin-1-yl}ethyl)benzoic acid] the ED50 was 0.2 mg/kg.
